# Test results from ChEMBL document CHEMBL5506074, “Discovery and Optimization of Tetrahydroisoquinoline Derivatives To Enhance Lysosome Biogenesis as Preclinical Candidates for the Treatment of Alzheimer's Disease” (J Med Chem, 2024).
# Active and inactive are the calls of the source. No cut-off for these calls is given here.
# Assays:
# [1] = Tmax in ICR mouse at 10 mg/kg, ip measured upto 24 hrs by LC-MS/MS analysis; format: ADME, organism-based; settings: in vivo
# [2] = test system: HeLa; test: Upregulation of p62 mRNA expression in TFEB knockout human HeLa cells at 10 uM incubated for 24 hrs by qRT-PCR analysis; format: functional, cell-based
# [3] = AUC (0 to t) in ICR mouse at 10 mg/kg, ip measured upto 24 hrs by LC-MS/MS analysis; format: ADME, organism-based; settings: in vivo
# [4] = Bioavailability in ICR mouse at 5 mg/kg, ip measured upto 24 hrs by LC-MS/MS analysis; format: ADME, organism-based; settings: in vivo
# [5] = test system: HeLa; test: Upregulation of LC3B mRNA expression in TFEB knockout human HeLa cells at 10 uM incubated for 24 hrs by qRT-PCR analysis; format: functional, cell-based
# [6] = test system: HeLa; test: Upregulation of Atg16L1 mRNA expression in human HeLa cells at 10 uM incubated for 24 hrs by qRT-PCR analysis; format: functional, cell-based
# [7] = test system: HeLa; test: Upregulation of GLA mRNA expression in TFEB knockout human HeLa cells at 10 uM incubated for 24 hrs by qRT-PCR analysis; format: functional, cell-based
# [8] = test system: HeLa; test: Upregulation of CTSF mRNA expression in human HeLa cells at 10 uM incubated for 24 hrs by qRT-PCR analysis; format: functional, cell-based
# [9] = Ratio of drug concentration in ICR mouse brain to plasma at 10 mg/kg, ip measured upto 24 hrs by LC-MS/MS analysis; format: ADME, organism-based; settings: brain and plasma, read-out: BPR
# [10] = Induction of TFEB nuclear translocation in human HeLa cells expressing EGFP at 10 uM measured at 6 hrs by fluorescence microscopic analysis; format: functional
# [11] = test system: HeLa; test: Upregulation of UVRAG mRNA expression in TFEB knockout human HeLa cells at 10 uM incubated for 24 hrs by qRT-PCR analysis; format: functional, cell-based
# [12] = Ratio of drug concentration in ICR mouse brain to plasma at 5 mg/kg, iv measured upto 24 hrs by LC-MS/MS analysis; format: ADME, organism-based; settings: brain and plasma, read-out: BPR
# [13] = test system: HeLa; test: Upregulation of CTSF mRNA expression in TFEB knockout human HeLa cells at 10 uM incubated for 24 hrs by qRT-PCR analysis; format: functional, cell-based
# [14] = test system: HeLa; test: Upregulation of OPTN mRNA expression in human HeLa cells at 10 uM incubated for 24 hrs by qRT-PCR analysis; format: functional, cell-based
# [15] = test system: HeLa; test: Upregulation of LAMP1 mRNA expression in human HeLa cells at 10 uM incubated for 24 hrs by qRT-PCR analysis; format: functional, cell-based
# [16] = Induction of TFEB nuclear translocation in human HeLa cells expressing EGFP at 10 uM measured at 3 hrs by fluorescence microscopic analysis; format: functional
# [17] = Clearance in ICR mouse at 5 mg/kg, iv measured upto 24 hrs by LC-MS/MS analysis; format: ADME, organism-based; settings: in vivo
# [18] = test system: HeLa; test: Upregulation of ATG2A mRNA expression in TFEB knockout human HeLa cells at 10 uM incubated for 24 hrs by qRT-PCR analysis; format: functional, cell-based
# [19] = test system: HeLa; test: Upregulation of […] mRNA expression in TFEB knockout human HeLa cells at 10 uM incubated for 24 hrs by qRT-PCR analysis; format: functional, cell-based
# [20] = test system: HeLa; test: Upregulation of […] mRNA expression in human HeLa cells at 10 uM incubated for 24 hrs by qRT-PCR analysis; format: functional, cell-based
# [21] = Volume of distribution at steady state in ICR mouse measured upto 24 hrs by LC-MS/MS analysis; format: ADME; settings: in vivo, read-out: Vdss
# [22] = test system: HeLa; test: Induction of lysosome biogenesis in human HeLa cells assessed as increase in number of acidified lysosomes at 10 uM incubated for 24 hrs by LysiTracker red staining based flow cytometry analysis; format: functional, cell-based
# [23] = test system: HeLa; test: Upregulation of p62 mRNA expression in human HeLa cells at 10 uM incubated for 24 hrs by qRT-PCR analysis; format: functional, cell-based
# [24] = Oral bioavailability in ICR mouse at 20 mg/kg measured upto 24 hrs by LC-MS/MS analysis; format: ADME, organism-based; settings: ICR, in vivo
# [25] = Half life in ICR mouse at 10 mg/kg, ip measured upto 24 hrs by LC-MS/MS analysis; format: ADME, organism-based; settings: in vivo
# [26] = Cmax in ICR mouse at 20 mg/kg, po measured upto 24 hrs by LC-MS/MS analysis; format: ADME, organism-based; settings: in vivo
# [27] = test system: HeLa; test: Upregulation of LC3B mRNA expression in human HeLa cells at 10 uM incubated for 24 hrs by qRT-PCR analysis; format: functional, cell-based
# [28] = test system: HeLa; test: Upregulation of Atg16L1 mRNA expression in TFEB knockout human HeLa cells at 10 uM incubated for 24 hrs by qRT-PCR analysis; format: functional, cell-based
# [29] = Cmax in ICR mouse at 10 mg/kg, ip measured upto 24 hrs by LC-MS/MS analysis; format: ADME, organism-based; settings: in vivo
# [30] = Half life in ICR mouse at 20 mg/kg, po measured upto 24 hrs by LC-MS/MS analysis; format: ADME, organism-based; settings: in vivo
# [31] = test system: HeLa; test: Upregulation of HEXA mRNA expression in TFEB knockout human HeLa cells at 10 uM incubated for 24 hrs by qRT-PCR analysis; format: functional, cell-based
# [32] = test system: HeLa; test: Upregulation of HEXA mRNA expression in human HeLa cells at 10 uM incubated for 24 hrs by qRT-PCR analysis; format: functional, cell-based
# [33] = Tmax in ICR mouse at 20 mg/kg, po measured upto 24 hrs by LC-MS/MS analysis; format: ADME, organism-based; settings: in vivo
# [34] = test system: HeLa; test: Upregulation of CTSD mRNA expression in human HeLa cells at 10 uM incubated for 24 hrs by qRT-PCR analysis; format: functional, cell-based
# [35] = test system: HeLa; test: Upregulation of LAMP1 mRNA expression in TFEB knockout human HeLa cells at 10 uM incubated for 24 hrs by qRT-PCR analysis; format: functional, cell-based
# [36] = test system: HeLa; test: Upregulation of GLA mRNA expression in human HeLa cells at 10 uM incubated for 24 hrs by qRT-PCR analysis; format: functional, cell-based
# [37] = test system: HeLa; test: Upregulation of ATG2A mRNA expression in human HeLa cells at 10 uM incubated for 24 hrs by qRT-PCR analysis; format: functional, cell-based
# [38] = Induction of TFEB nuclear translocation in human HeLa cells expressing EGFP at 30 uM measured at 3 hrs by fluorescence microscopic analysis; format: functional
# [39] = test system: HeLa; test: Upregulation of OPTN mRNA expression in TFEB knockout human HeLa cells at 10 uM incubated for 24 hrs by qRT-PCR analysis; format: functional, cell-based
# [40] = test system: HeLa; test: Upregulation of CTSD mRNA expression in TFEB knockout human HeLa cells at 10 uM incubated for 24 hrs by qRT-PCR analysis; format: functional, cell-based
# [41] = AUC (0 to t) in ICR mouse at 20 mg/kg, po measured upto 24 hrs by LC-MS/MS analysis; format: ADME, organism-based; settings: ICR, in vivo
# [42] = Induction of TFEB nuclear translocation in human HeLa cells expressing EGFP at 30 uM measured at 6 hrs by fluorescence microscopic analysis; format: functional
# [43] = AUC (0 to t) in ICR mouse at 5 mg/kg, iv measured upto 24 hrs by LC-MS/MS analysis; format: ADME, organism-based; settings: ICR, in vivo
# [44] = test system: HeLa; test: Upregulation of UVRAG mRNA expression in human HeLa cells at 10 uM incubated for 24 hrs by qRT-PCR analysis; format: functional, cell-based
structure (smiles),measurement,setting,value
COc1cc2c(cc1OC)C(CCc1c[nH]c3ccccc13)N(CC1CCOCC1)CC2 (centres undefined),Tmax,[1],10.8 min
same,Activity,[2],Active
same,AUC(0-t) at 24 h,[3],609 ng·h/mL
same,bioavailability,[4],50.4%
same,Activity,[5],Active
same,Activity,[6],Active
same,Activity,[7],Active
same,Activity,[8],Active
same,Kp at 24 h,[9],1.9
same,Activity,[10],47%
same,Activity,[11],Active
same,Kp at 24 h,[12],2.2
same,Activity,[13],Active
same,Activity,[14],Active
same,Activity,[15],Active
same,Activity,[16],27%
same,clearance,[17],140 mL/min/kg
same,Activity,[18],Active
same,Activity,[19],Active
same,Activity,[20],Active
same,Vd,[21],8.66 L/kg
same,Activity,[22],Active
same,Activity,[23],Active
same,bioavailability,[24],0.67%
same,half-life,[25],58.2 min
same,Cmax,[26],9.14 ng/mL
same,Activity,[27],Active
same,Activity,[28],Active
same,Cmax,[29],620 ng/mL
same,half-life,[30],216 min
same,Activity,[31],Active
same,Activity,[32],Active
same,Tmax,[33],25.2 min
same,Activity,[34],Active
same,Activity,[35],Active
same,Activity,[36],Active
same,Activity,[37],Active
same,Activity,[38],85%
same,Activity,[39],Active
same,Activity,[40],Active
same,AUC(0-t) at 24 h,[41],16.3 ng·h/mL
same,Activity,[42],85%
same,AUC(0-t) at 24 h,[43],604 ng·h/mL
same,Activity,[44],Active
